Read-outs that look alike come from different tables or passages of the source.
Assays:
[1] = molecular target: T1, HDAC8 (Homo sapiens, UniProt Q9BY41); assay: Enzymatic test HDAC8; assay type: biochemical; conditions: Table 3
T1 construct: purchased BPS 50008
T1 sequence (Q9BY41 1-377): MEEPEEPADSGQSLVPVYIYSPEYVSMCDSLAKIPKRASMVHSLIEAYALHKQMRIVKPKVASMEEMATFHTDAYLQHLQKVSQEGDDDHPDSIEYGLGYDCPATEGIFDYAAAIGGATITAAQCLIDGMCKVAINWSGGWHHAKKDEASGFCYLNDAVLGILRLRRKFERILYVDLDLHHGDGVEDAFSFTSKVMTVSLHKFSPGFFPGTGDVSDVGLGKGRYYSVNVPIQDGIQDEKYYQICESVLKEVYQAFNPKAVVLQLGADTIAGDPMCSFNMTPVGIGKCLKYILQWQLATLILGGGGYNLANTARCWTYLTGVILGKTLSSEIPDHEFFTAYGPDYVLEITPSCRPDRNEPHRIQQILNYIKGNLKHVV

[2] = molecular target: T2, HDAC4 (Homo sapiens, UniProt P56524); assay: Enzymatic test HDAC4; assay type: biochemical; conditions: Table 3
T2 construct: purchased BPS 50004
T2 sequence (P56524 627-1084 limits assumed): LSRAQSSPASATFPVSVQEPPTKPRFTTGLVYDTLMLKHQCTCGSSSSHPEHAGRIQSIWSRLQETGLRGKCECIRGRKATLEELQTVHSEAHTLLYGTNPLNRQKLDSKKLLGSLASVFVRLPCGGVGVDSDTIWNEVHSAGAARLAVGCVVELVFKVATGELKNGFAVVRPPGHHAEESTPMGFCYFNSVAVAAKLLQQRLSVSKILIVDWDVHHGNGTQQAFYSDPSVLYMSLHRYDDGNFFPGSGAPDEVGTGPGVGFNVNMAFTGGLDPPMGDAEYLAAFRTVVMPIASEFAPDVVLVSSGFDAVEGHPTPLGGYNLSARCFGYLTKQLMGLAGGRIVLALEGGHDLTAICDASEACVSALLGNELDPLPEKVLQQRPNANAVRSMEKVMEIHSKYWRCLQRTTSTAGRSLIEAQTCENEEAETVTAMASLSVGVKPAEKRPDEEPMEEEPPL
Protocol: (§1) After a period of incubation at 30° C. (incubation times vary for different isoforms and are shown in table 1) 25 μL of solution containing the substrate were added. As substrate, FLUOR DE LYS® deacetylase substrate (Enzo Life Sciences, cat #BML-K1104, FdL), FLUOR DE LYS®-Green substrate (Enzo Life Sciences, cat #BML-K1572 FdL_G) and trifluoroacetyl-L-lysine (Tfal)-2× concentrated solution in 25 mM Tris-HCl, pH 8, 130 mM NaCl 0.05% Tween-20 10% glycerol) were used. Following a reaction period at 30° C.

[3] = molecular target: T3, HDAC1 (Homo sapiens, UniProt Q13547); assay: Enzymatic test HDAC1; assay type: biochemical; conditions: Table 3
T3 construct: purchased BPS 50051
T3 sequence (Q13547 whole entry): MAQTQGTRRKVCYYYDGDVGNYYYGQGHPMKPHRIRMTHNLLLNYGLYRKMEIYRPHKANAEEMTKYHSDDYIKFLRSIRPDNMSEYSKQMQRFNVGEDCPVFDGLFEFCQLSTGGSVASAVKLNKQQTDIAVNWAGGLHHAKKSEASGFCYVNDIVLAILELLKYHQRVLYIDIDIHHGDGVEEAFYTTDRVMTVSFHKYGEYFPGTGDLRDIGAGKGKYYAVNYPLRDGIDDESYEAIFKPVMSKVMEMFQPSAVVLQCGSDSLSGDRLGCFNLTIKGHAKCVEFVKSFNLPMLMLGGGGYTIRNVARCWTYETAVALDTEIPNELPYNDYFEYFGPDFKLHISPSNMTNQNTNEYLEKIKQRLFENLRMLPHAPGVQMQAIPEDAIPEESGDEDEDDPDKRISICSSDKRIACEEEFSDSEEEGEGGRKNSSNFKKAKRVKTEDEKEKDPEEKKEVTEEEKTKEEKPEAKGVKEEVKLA

[4] = molecular target: T4, recombinant human HDAC6 (Homo sapiens, UniProt Q9UBN7); assay: Enzymatic screening on recombinant human HDAC6; assay type: biochemical; conditions: read-out: HDAC6 IC50
T4 sequence (Q9UBN7 1-1215): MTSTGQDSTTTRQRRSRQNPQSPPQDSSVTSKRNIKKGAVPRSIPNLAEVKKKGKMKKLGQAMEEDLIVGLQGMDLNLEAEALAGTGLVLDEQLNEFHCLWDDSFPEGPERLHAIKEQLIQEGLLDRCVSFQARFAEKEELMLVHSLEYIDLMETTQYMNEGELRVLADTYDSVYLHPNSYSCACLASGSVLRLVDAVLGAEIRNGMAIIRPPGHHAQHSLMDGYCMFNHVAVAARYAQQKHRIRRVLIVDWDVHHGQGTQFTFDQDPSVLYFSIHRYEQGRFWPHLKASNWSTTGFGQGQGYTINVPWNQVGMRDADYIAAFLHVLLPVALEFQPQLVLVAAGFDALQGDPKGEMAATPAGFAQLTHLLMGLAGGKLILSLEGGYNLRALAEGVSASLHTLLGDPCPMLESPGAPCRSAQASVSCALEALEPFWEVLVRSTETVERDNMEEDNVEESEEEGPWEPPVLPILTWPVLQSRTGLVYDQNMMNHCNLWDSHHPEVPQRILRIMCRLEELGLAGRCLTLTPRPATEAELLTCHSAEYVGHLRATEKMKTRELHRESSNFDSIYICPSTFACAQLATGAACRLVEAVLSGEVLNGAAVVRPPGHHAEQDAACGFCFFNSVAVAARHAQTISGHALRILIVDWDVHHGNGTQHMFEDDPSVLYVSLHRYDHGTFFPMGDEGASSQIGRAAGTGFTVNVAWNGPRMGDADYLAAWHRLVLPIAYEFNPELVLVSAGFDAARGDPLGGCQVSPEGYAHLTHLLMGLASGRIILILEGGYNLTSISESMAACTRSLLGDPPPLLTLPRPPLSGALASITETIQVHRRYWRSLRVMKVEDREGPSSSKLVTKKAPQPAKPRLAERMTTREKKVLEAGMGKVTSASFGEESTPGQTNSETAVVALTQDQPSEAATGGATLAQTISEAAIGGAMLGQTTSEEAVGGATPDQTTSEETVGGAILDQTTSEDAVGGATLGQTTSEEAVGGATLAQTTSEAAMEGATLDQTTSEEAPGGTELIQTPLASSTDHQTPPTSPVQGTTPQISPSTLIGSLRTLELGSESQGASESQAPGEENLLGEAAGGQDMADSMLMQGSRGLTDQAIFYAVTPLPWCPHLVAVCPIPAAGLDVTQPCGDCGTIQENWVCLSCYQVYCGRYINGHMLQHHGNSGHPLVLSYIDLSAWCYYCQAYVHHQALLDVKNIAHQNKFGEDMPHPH
Procedure, shortened: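 Buffer for substrate addition: 25 mM Tris-HCl pH 8, 130 mM NaCl, 0.05% Tween-20, 10% glycerol, substrate 2× concentrated (FdL, FdL-Green or trifluoroacetyl-lysine). Recombinant human HDAC was preincubated with compound at 30 °C beforehand, timing isoform-dependent, and the reaction was likewise run at 30 °C.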

[5] = Stability in rat plasma; assay type: in vitro ADME; conditions: after 4 hours, 37° C.
Procedure, shortened: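 Compounds incubated at 37° C in rat or human plasma at 50 μM (UV/HPLC) or 1 or 2 μM (LC-MS/MS) for 0–4 h. Reaction stopped with acidified acetonitrile on ice; percent remaining versus initial amount and plasma half-life calculated.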

[6] = Stability to Phase I metabolism in rat S9 liver fraction; assay type: in vitro ADME; conditions: after 90 min, 37° C.
Procedure, shortened: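 Compounds were incubated with rat or human liver S9 fraction at 37 °C for up to 90 min. Reactions were quenched on ice with acidified acetonitrile and analysed by HPLC-UV or LC-MS/MS. Percent remaining versus time zero and intrinsic clearance were calculated.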

[7] = molecular target: T5, HDAC9 (Homo sapiens, UniProt Q9UKV0); assay: Enzymatic test HDAC9; assay type: biochemical; conditions: Table 3
T5 construct: purchased BPS 50009
T5 sequence (Q9UKV0 1-1066 isoform Q9UKV0-5): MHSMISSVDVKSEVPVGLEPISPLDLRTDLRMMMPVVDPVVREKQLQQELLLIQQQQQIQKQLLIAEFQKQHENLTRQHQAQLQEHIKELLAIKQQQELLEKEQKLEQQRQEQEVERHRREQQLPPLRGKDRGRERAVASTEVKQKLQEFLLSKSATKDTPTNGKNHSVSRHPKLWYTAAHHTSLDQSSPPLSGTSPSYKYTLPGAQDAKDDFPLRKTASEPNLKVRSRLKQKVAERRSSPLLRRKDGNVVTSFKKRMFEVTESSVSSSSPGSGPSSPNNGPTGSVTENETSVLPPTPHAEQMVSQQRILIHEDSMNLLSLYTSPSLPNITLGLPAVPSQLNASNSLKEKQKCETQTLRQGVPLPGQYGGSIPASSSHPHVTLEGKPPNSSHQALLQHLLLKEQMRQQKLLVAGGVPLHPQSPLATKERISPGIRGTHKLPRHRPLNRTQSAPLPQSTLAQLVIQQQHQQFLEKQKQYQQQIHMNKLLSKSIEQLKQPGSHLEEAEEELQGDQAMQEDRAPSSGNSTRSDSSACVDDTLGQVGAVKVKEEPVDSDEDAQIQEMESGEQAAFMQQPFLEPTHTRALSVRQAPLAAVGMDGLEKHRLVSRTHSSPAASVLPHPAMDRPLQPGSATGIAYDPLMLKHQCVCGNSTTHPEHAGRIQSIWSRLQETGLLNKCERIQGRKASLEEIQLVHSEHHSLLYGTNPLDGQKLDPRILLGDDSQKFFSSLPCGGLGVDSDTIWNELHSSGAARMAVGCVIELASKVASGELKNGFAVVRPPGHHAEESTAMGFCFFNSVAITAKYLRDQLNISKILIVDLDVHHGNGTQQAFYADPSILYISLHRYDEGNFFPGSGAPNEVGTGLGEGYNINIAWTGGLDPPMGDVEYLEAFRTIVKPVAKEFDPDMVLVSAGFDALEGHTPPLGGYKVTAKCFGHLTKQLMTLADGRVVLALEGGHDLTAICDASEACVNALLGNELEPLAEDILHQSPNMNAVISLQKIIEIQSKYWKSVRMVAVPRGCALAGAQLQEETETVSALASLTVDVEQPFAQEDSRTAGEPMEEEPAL
Protocol: as §1

| SMILES | IC50 [1] [nM] | IC50 [2] [nM] | IC50 [3] [nM] | IC50 ([4]; Table 2) [nM] | IC50 ([4]; Table 3) [nM] | residual percentage in rat plasma [5] [%] | residual percentage in rat S9 fraction [6] [%] | IC50 [7] [nM] |
| --- | --- | --- | --- | --- | --- | --- | --- | --- |
| O=C(NO)c1cc(F)c(Cn2nnc(-c3cccs3)n2)c(F)c1 [comp. 65, 3,5-difluoro-4-[[5-(2-thienyl)tetrazol-2-yl]methyl]benzenecarbohydroxamic acid] | 1080 | 831 | 2410 | 6 | 6 | 88 | 8 | 995 |
| Cn1c(Sc2c(F)cc(C(=O)NO)cc2F)nnc1C(c1ccccc1)c1ccccc1 [comp. 98, 4-[(5-benzhydryl-4-methyl-1,2,4-triazol-3-yl)sulfanyl]-3,5-difluoro-benzenecarbohydroxamic acid] | 186 | 1610 | 1010 | 61 | 61 | 89 | 88 | 844 |

Continued, values first:

| IC50 [1] [nM] | IC50 [2] [nM] | IC50 [3] [nM] | IC50 ([4]; Table 2) [nM] | IC50 ([4]; Table 3) [nM] | residual percentage in rat plasma [5] [%] | residual percentage in rat S9 fraction [6] [%] | IC50 [7] [nM] | SMILES |
| --- | --- | --- | --- | --- | --- | --- | --- | --- |
| 419 | 481 | 747 | 6 | 6 | 66 | 54 | 168 | CCN(CC)S(=O)(=O)c1cccc(-c2nnc(Sc3ccc(C(=O)NO)cc3)n2C)c1 [comp. 66, 4-[[5-[3-(diethylsulfamoyl)phenyl]-4-methyl-1,2,4-triazol-3-yl]sulfanyl]benzenecarbohydroxamic acid] |
| 548 | 731 | 4640 | 16 | 16 | 77 | 32 | 426 | CN(C)c1cccc(-c2nnc(Sc3c(F)cc(C(=O)NO)cc3F)n2C)c1 [comp. 80, 4-[[5-[3-(dimethylamino)phenyl]-4-methyl-1,2,4-triazol-3-yl]sulfanyl]-3,5-difluoro-benzenecarbohydroxamic acid] |
| 216 | 1030 | 469 | 5 | 5 | 76 | 75 | 452 | Cc1cc(-c2nnc(Sc3ccc(C(=O)NO)cc3)n2C)nn1C [comp. 85, 4-[[5-(1,5-dimethylpyrazol-3-yl)-4-methyl-1,2,4-triazol-3-yl]sulfanyl]benzenecarbohydroxamic acid] |

— patent US11351178B2, “Selective HDAC6 inhibitors” (ITALFARMACO S.P.A., priority 2017, dated 2022)
